Target: T1, CK1α (Homo sapiens, UniProt P48729)
T1 construct: HEK293 clonal lines with CRISPR KI HiBiT tag on CSNK1A1
Assay: CK1α NanoBit Assay (HiBiT-tagged CSNK1A1, HEK293 clonal lines)
Type: cell-based
Settings: HEK293 HiBiT-CSNK1A1/LgBiT cells, 24 h incubation
Experimental: HEK293 clonal lines with CRISPR KI HiBiT tag on CSNK1A1 and stably expressing LgBiT protein were obtained from Promega (Madison, WI). […] Cells were incubated at 37° C., 5% CO2 for 24 hours and then signal was read on a Pherastar FSX using “LUM plus” optic module.
Data analysis was performed in Scinamic (Scinamic, Cambridge, MA). Luminescence response (R) was calculated by the formula: response=100*(S−N)/(P−N) where S is the signal of the well, N and P the mean negative and positive control values respectively of the same plate.
DC50 data are reported in Table 2 for compounds in Table 1. In Table 2 below, According to the code, A represents a DC50 value of ≤0.1 μM, B represents a DC50 value>0.1 μM and ≤1 μM, C represents an DC50 value>1 μM.

T1 sequence (P48729 whole entry): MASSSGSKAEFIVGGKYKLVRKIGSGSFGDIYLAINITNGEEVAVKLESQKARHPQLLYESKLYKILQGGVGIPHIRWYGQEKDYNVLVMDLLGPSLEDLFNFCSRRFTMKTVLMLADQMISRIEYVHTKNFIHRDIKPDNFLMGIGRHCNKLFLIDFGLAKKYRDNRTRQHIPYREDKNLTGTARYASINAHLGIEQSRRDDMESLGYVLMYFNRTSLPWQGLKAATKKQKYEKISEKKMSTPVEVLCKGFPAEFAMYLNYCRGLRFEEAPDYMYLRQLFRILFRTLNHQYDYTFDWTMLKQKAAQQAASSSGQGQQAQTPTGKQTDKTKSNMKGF
T1 sequence (Q96SW2 whole entry, further chain): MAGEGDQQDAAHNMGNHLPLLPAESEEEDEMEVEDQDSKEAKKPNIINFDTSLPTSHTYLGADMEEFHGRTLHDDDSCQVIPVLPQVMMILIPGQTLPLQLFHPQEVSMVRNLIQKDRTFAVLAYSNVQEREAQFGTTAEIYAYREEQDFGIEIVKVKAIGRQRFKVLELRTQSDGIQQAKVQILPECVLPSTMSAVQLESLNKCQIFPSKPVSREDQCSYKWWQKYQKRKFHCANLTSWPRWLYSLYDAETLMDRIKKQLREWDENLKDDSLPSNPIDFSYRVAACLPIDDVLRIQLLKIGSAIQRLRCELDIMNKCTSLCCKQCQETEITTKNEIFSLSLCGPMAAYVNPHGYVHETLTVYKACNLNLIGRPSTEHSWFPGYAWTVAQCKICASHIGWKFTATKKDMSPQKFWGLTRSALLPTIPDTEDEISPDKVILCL
T1 sequence (Q16531 2-1140 partner limits assumed): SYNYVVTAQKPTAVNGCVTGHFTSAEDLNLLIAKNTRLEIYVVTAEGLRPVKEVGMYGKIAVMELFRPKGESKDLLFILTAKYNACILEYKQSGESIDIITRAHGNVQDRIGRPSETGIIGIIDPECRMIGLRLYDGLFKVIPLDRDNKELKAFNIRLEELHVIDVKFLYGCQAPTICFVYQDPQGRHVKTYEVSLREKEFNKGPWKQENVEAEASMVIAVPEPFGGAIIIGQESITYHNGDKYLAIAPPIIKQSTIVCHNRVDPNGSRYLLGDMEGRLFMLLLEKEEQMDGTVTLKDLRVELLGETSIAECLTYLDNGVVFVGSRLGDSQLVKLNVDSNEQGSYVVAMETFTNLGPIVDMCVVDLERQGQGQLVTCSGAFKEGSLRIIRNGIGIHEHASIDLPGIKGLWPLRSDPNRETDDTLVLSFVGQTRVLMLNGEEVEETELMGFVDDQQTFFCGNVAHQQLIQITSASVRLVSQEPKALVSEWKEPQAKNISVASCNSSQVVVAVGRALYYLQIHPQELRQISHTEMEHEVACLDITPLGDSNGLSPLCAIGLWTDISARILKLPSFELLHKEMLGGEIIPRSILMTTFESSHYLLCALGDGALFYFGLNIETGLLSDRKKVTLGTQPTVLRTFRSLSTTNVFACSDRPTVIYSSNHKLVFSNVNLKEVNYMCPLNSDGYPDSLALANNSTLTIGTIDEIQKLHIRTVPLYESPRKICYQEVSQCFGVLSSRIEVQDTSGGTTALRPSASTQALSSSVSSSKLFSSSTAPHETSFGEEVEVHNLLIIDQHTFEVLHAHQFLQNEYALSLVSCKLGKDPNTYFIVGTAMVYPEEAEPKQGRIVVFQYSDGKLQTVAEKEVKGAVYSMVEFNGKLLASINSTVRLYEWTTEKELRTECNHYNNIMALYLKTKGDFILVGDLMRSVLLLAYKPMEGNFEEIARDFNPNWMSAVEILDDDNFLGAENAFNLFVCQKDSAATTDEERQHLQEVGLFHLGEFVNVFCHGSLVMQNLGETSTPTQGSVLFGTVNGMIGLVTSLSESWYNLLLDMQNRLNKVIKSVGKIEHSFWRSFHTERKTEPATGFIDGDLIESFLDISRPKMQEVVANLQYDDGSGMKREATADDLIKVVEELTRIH

DC50 [µM] | SMILES
< 0.1 | O=C1CCC(N2Cc3cc(NC(=O)N4Cc5cccc(Cl)c5C4)ccc3C2=O)C(=O)N1 (centres unmarked) [Compound 182]
< 0.1 | CC1(C)CN(C(=O)Nc2ccc3c(c2)CN(C2CCC(=O)NC2=O)C3=O)Cc2ccccc21 (centres unmarked) [Compound 200]
0.1 to 1 | O=C1CCC(N2Cc3cc(NC(=O)N4CCC(c5ccccn5)C4)ccc3C2=O)C(=O)N1 (centres unmarked) [Compound 263]
> 1 | Cc1cccc(C2(O)CN(C(=O)Nc3ccc4c(c3)CN(C3CCC(=O)NC3=O)C4=O)C2)c1 (centres unmarked) [Compound 225]
0.1 to 1 | C[C@@H]1C[C@H](C)c2ccccc2N1C(=O)Nc1ccc2c(c1)CN(C1CCC(=O)NC1=O)C2=O (some centres unmarked) [Compound 128]
0.1 to 1 | CC1(c2ccccc2F)CN(C(=O)Nc2ccc3c(c2)CN(C2CCC(=O)NC2=O)C3=O)C1 (centres unmarked) [Compound 258]
< 0.1 | O=C1CCC(N2Cc3cc(NC(=O)N4CCc5c(F)cccc5C4)ccc3C2=O)C(=O)N1 (centres unmarked) [Compound 184]
0.1 to 1 | O=C1CCC(N2Cc3cc(NC(=O)N4CCc5cccnc5C4)ccc3C2=O)C(=O)N1 (centres unmarked) [Compound 195]
0.1 to 1 | Cc1ccc2c(c1)N(C(=O)Nc1ccc3c(c1)CN(C1CCC(=O)NC1=O)C3=O)CCC2 (centres unmarked) [Compound 149]
0.1 to 1 | N#Cc1ccc2c(c1)CCCN2C(=O)Nc1ccc2c(c1)CN(C1CCC(=O)NC1=O)C2=O (centres unmarked) [Compound 150]
< 0.1 | O=C1CCC(N2Cc3cc(NC(=O)N4CC(c5cccc(Cl)c5)C4)ccc3C2=O)C(=O)N1 (centres unmarked) [Compound 268]
> 1 | C[C@@H]1CCN(C(=O)Nc2ccc3c(c2)CN(C2CCC(=O)NC2=O)C3=O)[C@H](C)C1 (some centres unmarked) [Compound 275]
0.1 to 1 | O=C1CCC(N2Cc3cc(NC(=O)N4CC(n5cccn5)Cc5ccccc54)ccc3C2=O)C(=O)N1 (centres unmarked) [Compound 161]
< 0.1 | C[C@H]1c2ccccc2CN1C(=O)Nc1ccc2c(c1)CN(C1CCC(=O)NC1=O)C2=O (some centres unmarked) [Compound 167]
0.1 to 1 | O=C1CCC(N2Cc3cc(NC(=O)N4C[C@H](c5ccccc5)[C@H]4CO)ccc3C2=O)C(=O)N1 (some centres unmarked) [Compound 245]
0.1 to 1 | O=C1CCC(N2Cc3cc(NC(=O)N4CCCc5c4cccc5C(F)(F)F)ccc3C2=O)C(=O)N1 (centres unmarked) [Compound 160]
0.1 to 1 | O=C1CCC(N2Cc3cc(NC(=O)N4CCCc5ccccc54)ccc3C2=O)C(=O)N1 (centres unmarked) [Compound 107, N-(2-(2,6-dioxopiperidin-3-yl)-1-oxoisoindolin-5-yl)-3,4-dihydroquinoline-1(2H)-carboxamide]
0.1 to 1 | N#Cc1cccc2c1CCN(C(=O)Nc1ccc3c(c1)CN(C1CCC(=O)NC1=O)C3=O)C2 (centres unmarked) [Compound 176]
< 0.1 | O=C1CCC(N2Cc3cc(NC(=O)N4CCC(c5ccccc5)C4)ccc3C2=O)C(=O)N1 (centres unmarked) [Compound 260]
< 0.1 | O=C1CCC(N2Cc3cc(NC(=O)N4CCC(C(F)(F)F)c5ccccc54)ccc3C2=O)C(=O)N1 (centres unmarked) [Compound 127]
< 0.1 | O=C1CCC(N2Cc3cc(NC(=O)N4c5ccccc5C[C@@H]4CO)ccc3C2=O)C(=O)N1 (some centres unmarked) [Compound 125]
< 0.1 | CC1(C)CCN(C(=O)Nc2ccc3c(c2)CN(C2CCC(=O)NC2=O)C3=O)c2ccccc21 (centres unmarked) [Compound 143]

DC50 [µM] | SMILES
< 0.1 | Cc1ccccc1N1CCN(C(=O)Nc2ccc3c(c2)CN(C2CCC(=O)NC2=O)C3=O)CC1 (centres unmarked) [Compound 261]
0.1 to 1 | Cc1cccc(N2CCN(C(=O)Nc3ccc4c(c3)CN(C3CCC(=O)NC3=O)C4=O)CC2)c1 (centres unmarked) [Compound 265]
< 0.1 | O=C1CCC(N2Cc3cc(NC(=O)N4CCCc5ccc(C(F)F)cc54)ccc3C2=O)C(=O)N1 (centres unmarked) [Compound 129]
< 0.1 | O=C1CCC(N2Cc3cc(NC(=O)N4CC(c5ccccc5F)C4)ccc3C2=O)C(=O)N1 (centres unmarked) [Compound 217]
> 1 | Cn1cc(C2CCN(C(=O)Nc3ccc4c(c3)CN(C3CCC(=O)NC3=O)C4=O)C2)cn1 (centres unmarked) [Compound 222]
> 1 | O=C1CCC(N2Cc3cc(NC(=O)N4CCc5ccncc5C4)ccc3C2=O)C(=O)N1 (centres unmarked) [Compound 151]
< 0.1 | O=C1CCC(N2Cc3cc(NC(=O)N4CCCC5(CCC5)C4)ccc3C2=O)C(=O)N1 (centres unmarked) [Compound 255]
< 0.1 | O=C1CCC(N2Cc3cc(NC(=O)N4C5CCCC4C5)ccc3C2=O)C(=O)N1 (centres unmarked) [Compound 218]
> 1 | O=C1CCC(N2Cc3cc(NC(=O)N4CCCC(O)C4)ccc3C2=O)C(=O)N1 (centres unmarked) [Compound 262]
< 0.1 | COc1cccc2c1CN(C(=O)Nc1ccc3c(c1)CN(C1CCC(=O)NC1=O)C3=O)C2 (centres unmarked) [Compound 134]
< 0.1 | CC1Cc2ccccc2N(C(=O)Nc2ccc3c(c2)CN(C2CCC(=O)NC2=O)C3=O)C1 (centres unmarked) [Compound 153]
0.1 to 1 | O=C1CCC(N2Cc3cc(NC(=O)N4CCC5(CC5)C4)ccc3C2=O)C(=O)N1 (centres unmarked) [Compound 274]
> 1 | O=C1CCC(N2Cc3cc(NC(=O)N4CCc5cnccc5C4)ccc3C2=O)C(=O)N1 (centres unmarked) [Compound 207]
0.1 to 1 | O=C1CCC(N2Cc3cc(NC(=O)N4CCc5ncccc54)ccc3C2=O)C(=O)N1 (centres unmarked) [Compound 108, N-(2-(2,6-dioxopiperidin-3-yl)-1-oxoisoindolin-5-yl)-2,3-dihydro-1H-pyrrolo[3,2-b]pyridine-1-carboxamide]
0.1 to 1 | C[C@H]1CCCN(C(=O)Nc2ccc3c(c2)CN(C2CCC(=O)NC2=O)C3=O)C1 (some centres unmarked) [Compound 279]
> 1 | Cn1cc(N2CCN(C(=O)Nc3ccc4c(c3)CN(C3CCC(=O)NC3=O)C4=O)CC2)cn1 (centres unmarked) [Compound 243]
< 0.1 | O=C1CCC(N2Cc3cc(NC(=O)N4CCc5ccccc5C4)ccc3C2=O)C(=O)N1 (centres unmarked) [Compound 104, N-(2-(2,6-dioxopiperidin-3-yl)-1-oxoisoindolin-5-yl)-3,4-dihydroisoquinoline-2(1H)-carboxamide]
< 0.1 | O=C1CCC(N2Cc3cc(NC(=O)N4CCC5(CCC5)C4)ccc3C2=O)C(=O)N1 (centres unmarked) [Compound 278]
< 0.1 | O=C1CCC(N2Cc3cc(NC(=O)N4Cc5ccccc5CC4c4ccccc4)ccc3C2=O)C(=O)N1 (centres unmarked) [Compound 215]
0.1 to 1 | O=C1CCC(N2Cc3cc(NC(=O)N4CC(c5cccc(C(F)(F)F)c5)C4)ccc3C2=O)C(=O)N1 (centres unmarked) [Compound 241]
0.1 to 1 | O=C1CCC(N2Cc3cc(NC(=O)N4CCCC5CC54)ccc3C2=O)C(=O)N1 (centres unmarked) [Compound 276]
0.1 to 1 | O=C1CCC(N2Cc3cc(NC(=O)N4CCc5cnccc54)ccc3C2=O)C(=O)N1 (centres unmarked) [Compound 110, N-(2-(2,6-dioxopiperidin-3-yl)-1-oxoisoindolin-5-yl)-2,3-dihydro-1H-pyrrolo[3,2-c]pyridine-1-carboxamide]

DC50 [µM] | SMILES
> 1 | O=C1CCC(N2Cc3cc(NC(=O)N4CCN(c5ccncn5)CC4)ccc3C2=O)C(=O)N1 (centres unmarked) [Compound 266]
< 0.1 | N#Cc1ccc2c(c1)CN(C(=O)Nc1ccc3c(c1)CN(C1CCC(=O)NC1=O)C3=O)C2 (centres unmarked) [Compound 133]
< 0.1 | C[C@@H]1[C@H]2CN(C(=O)Nc3ccc4c(c3)CN(C3CCC(=O)NC3=O)C4=O)C[C@@H]12 (some centres unmarked) [Compound 273]
0.1 to 1 | O=C1CCC(N2Cc3cc(NC(=O)N4CCCC4c4ccccn4)ccc3C2=O)C(=O)N1 (centres unmarked) [Compound 270]
< 0.1 | CC1Cc2ccccc2N1C(=O)Nc1ccc2c(c1)CN(C1CCC(=O)NC1=O)C2=O (centres unmarked) [Compound 138]
> 1 | O=C1CCC(N2Cc3cc(NC(=O)N4CCC(c5cnccn5)C4)ccc3C2=O)C(=O)N1 (centres unmarked) [Compound 223]
< 0.1 | CC(C)(C)c1ccc2c(c1)CCN(C(=O)Nc1ccc3c(c1)CN(C1CCC(=O)NC1=O)C3=O)C2 (centres unmarked) [Compound 194]
< 0.1 | O=C1CCC(N2Cc3cc(NC(=O)N4CCc5cc(F)ccc5C4)ccc3C2=O)C(=O)N1 (centres unmarked) [Compound 193]
> 1 | O=C1CCC(N2Cc3cc(NC(=O)N4CCCc5ncccc54)ccc3C2=O)C(=O)N1 (centres unmarked) [Compound 145]
< 0.1 | CC(C)(C)c1ccc2c(c1)CN(C(=O)Nc1ccc3c(c1)CN(C1CCC(=O)NC1=O)C3=O)CC2 (centres unmarked) [Compound 179]
0.1 to 1 | Cc1ccc(C2CCCN2C(=O)Nc2ccc3c(c2)CN(C2CCC(=O)NC2=O)C3=O)cn1 (centres unmarked) [Compound 224]
< 0.1 | O=C1CCC(N2Cc3cc(NC(=O)N4CCc5ccc(-c6ccccc6)cc5C4)ccc3C2=O)C(=O)N1 (centres unmarked) [Compound 183]
0.1 to 1 | O=C1CCC(N2Cc3cc(NC(=O)N4CCN(c5ncccn5)CC4)ccc3C2=O)C(=O)N1 (centres unmarked) [Compound 272]
0.1 to 1 | O=C1CCC(N2Cc3cc(NC(=O)N4CCCc5cccc(OC(F)F)c54)ccc3C2=O)C(=O)N1 (centres unmarked) [Compound 159]
0.1 to 1 | O=C1CCC(N2Cc3cc(NC(=O)N4Cc5ccccc5C(n5cccn5)C4)ccc3C2=O)C(=O)N1 (centres unmarked) [Compound 206]
< 0.1 | O=C1CCC(N2Cc3cc(NC(=O)N4Cc5cccc(F)c5C4)ccc3C2=O)C(=O)N1 (centres unmarked) [Compound 202]
0.1 to 1 | O=C1CCC(N2Cc3cc(NC(=O)N4CCCc5c(F)cccc54)ccc3C2=O)C(=O)N1 (centres unmarked) [Compound 131]
< 0.1 | O=C1CCC(N2Cc3cc(NC(=O)N4c5cccc(C(F)(F)F)c5CC45COC5)ccc3C2=O)C(=O)N1 (centres unmarked) [Compound 296, N-(2-(2,6-dioxopiperidin-3-yl)-1-oxoisoindolin-5-yl)-4-(trifluoromethyl)spiro[indoline-2,3′-oxetane]-1-carboxamide]
< 0.1 | C[C@@H]1Cc2cc(F)ccc2N1C(=O)Nc1ccc2c(c1)CN(C1CCC(=O)NC1=O)C2=O (stereo partly drawn) [Compound 363, (2R)—N-(2-(2,6-dioxopiperidin-3-yl)-1-oxoisoindolin-5-yl)-5-fluoro-2-methylindoline-1-carboxamide]
< 0.1 | CCC1c2ccccc2CN1C(=O)Nc1ccc2c(c1)CN(C1CCC(=O)NC1=O)C2=O (centres unmarked) [Compound 208]
< 0.1 | O=C1CCC(N2Cc3cc(NC(=O)N4Cc5ccc(Cl)cc5C4)ccc3C2=O)C(=O)N1 (centres unmarked) [Compound 177]

Source: patent US20250171420A1 (Monte Rosa Therapeutics, Inc., priority 2022, published 2025)
